Measured values published in patent US20240158446A1, “CYCLIC COMPOUND HAVING SELECTIVE INHIBITORY ACTION ON KRAS OVER HRAS AND NRAS” (CHUGAI SEIYAKU KABUSHIKI KAISHA, priority 2021, published 2024).
Where two headings read alike, the source gives them in different places.

Experiments:
[1] = target: GDP-bound HRAS wild-type protein (Homo sapiens, UniProt P01112); experiment: Binding to HRAS by surface plasmon resonance (SPR), Single Cycle Kinetics; conditions: for HRAS/KRAS (ratio of KD value for HRAS to KD value for KRAS): GDP-bound HRAS wild-type protein vs GDP-bound KRAS wild-type protein
[2] = tested on: human lung cancer strain NCI-H441;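 also: cell proliferation inhibition after four days measured by CellTiter-Glo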
[3] = target: GDP-bound NRAS wild-type protein (Homo sapiens, UniProt P01111); experiment: Binding to NRAS by surface plasmon resonance (SPR), Single Cycle Kinetics; conditions: for NRAS/KRAS (ratio of KD value for NRAS to KD value for KRAS): GDP-bound NRAS wild-type protein vs GDP-bound KRAS wild-type protein
[4] = target: GDP-bound KRAS wild-type protein (Homo sapiens, UniProt P01116); experiment: Binding to KRAS by surface plasmon resonance (SPR), Single Cycle Kinetics
[5] = SPR, Single Cycle Kinetics, GDP-bound KRAS wild-type protein, read-out: KRAS KD
[6] = SPR, Single Cycle Kinetics, 1:1 binding model, GDP-bound KRAS wild-type protein, read-out: KRAS KD

GDP-bound HRAS wild-type protein, sequence (P01112 whole entry): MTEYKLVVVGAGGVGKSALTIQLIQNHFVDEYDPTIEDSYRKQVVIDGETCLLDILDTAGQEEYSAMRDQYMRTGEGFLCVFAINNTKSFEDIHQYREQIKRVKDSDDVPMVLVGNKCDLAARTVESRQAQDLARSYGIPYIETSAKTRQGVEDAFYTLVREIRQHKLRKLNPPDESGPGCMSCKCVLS
GDP-bound KRAS wild-type protein, sequence (P01116 whole entry): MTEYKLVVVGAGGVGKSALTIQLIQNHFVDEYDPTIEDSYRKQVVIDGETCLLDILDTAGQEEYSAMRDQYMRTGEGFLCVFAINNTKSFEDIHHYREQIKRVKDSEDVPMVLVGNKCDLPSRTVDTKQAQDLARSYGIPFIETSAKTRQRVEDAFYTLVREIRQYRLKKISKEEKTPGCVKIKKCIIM
GDP-bound NRAS wild-type protein, sequence (P01111 whole entry): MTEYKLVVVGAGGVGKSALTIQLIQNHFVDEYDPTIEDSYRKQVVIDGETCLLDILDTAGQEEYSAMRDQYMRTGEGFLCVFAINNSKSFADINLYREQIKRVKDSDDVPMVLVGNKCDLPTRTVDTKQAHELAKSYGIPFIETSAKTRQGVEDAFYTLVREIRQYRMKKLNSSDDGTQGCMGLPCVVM

Row | Structure (SMILES) | IC50 [2] | Kd [4, 5] | HRAS/KRAS (ratio of KD value for HRAS to KD value for KRAS) ([1]; SPR) | NRAS/KRAS (ratio of KD value for NRAS to KD value for KRAS) ([3]; SPR) | further results
1 | CCO[C@@H]1C[C@H]2C(=O)NC3(CCC3)C(=O)N(C)[C@@H](C3CCCC3)C(=O)N(C)[C@H](C(=O)N(C)C)CC(=O)N(C)[C@@H](Cc3ccc(Cl)c(Cl)c3)C(=O)N[C@@H]([C@@H](C)CC)C(=O)N(C)CC(=O)N(C)[C@H]3CCCCCN(C3=O)[C@@H](Cc3ccc(C(F)(F)F)cc3)C(=O)N(C)CC(=O)N[C@@H](CCc3cc(F)c(C(F)(F)F)c(F)c3)C(=O)N2C1 [PP1174] | 85.2 nM | 1 nM | B (a compound having 3 or more and less than 10 is denoted as B) | B (a compound having 3 or more and less than 10 is denoted as B) | 
2 | CCO[C@@H]1C[C@H]2C(=O)NC3(CCCC3)C(=O)N(C)[C@@H](C(CC)CC)C(=O)N(C)[C@H](C(=O)N3CCCC3)CC(=O)N(C)[C@@H](C)C(=O)N[C@@H]([C@@H](C)CC)C(=O)N(C)CC(=O)N(C)[C@H]3C/C=C\CCN(C3=O)[C@@H](CC3CCC(F)(F)CC3)C(=O)N(C)CC(=O)N[C@@H](CCc3cc(F)c(C(F)(F)F)c(F)c3)C(=O)N2C1 [PP1437] | 220 nM |  |  |  | HRAS/KRAS (ratio of KD value for HRAS to KD value for KRAS) ([1]; SPR, KD ratio class): A (a compound having 10 or more and less than 20 is denoted as A); NRAS/KRAS (ratio of KD value for NRAS to KD value for KRAS) ([3]; SPR, KD ratio class): A (a compound having 10 or more and less than 20 is denoted as A); Kd [4, 6]: 0.61 nM
3 | CCCO[C@@H]1C[C@H]2C(=O)NC3(CC(C)(C)C3)C(=O)N(C)[C@@H](C3CCCC3)C(=O)N(C)[C@H](C(=O)N3CCCC3)CC(=O)N(C)[C@H]3CCCCc4ccc(cc4)C[C@@H](C(=O)N(C)CC(=O)N[C@@H](CCc4ccc(C(F)(F)F)c(OC)c4)C(=O)N2C1)N1CC/C=C\C[C@@H](C1=O)N(C)C(=O)CN(C)C(=O)[C@H]([C@@H](C)CC)NC3=O [PP3094, (1S,7S,11R,13S,19S,22S,26S,29S,35S,37Z)-19-cyclopentyl-7-[2-[3-methoxy-4-(trifluoromethyl)phenyl]ethyl]-3,3′,3′,18,21,25,31,34-octamethyl-29-[(1S)-1-methylpropyl]-11-propoxy-22-(pyrrolidine-1-carbonyl)spiro[3,6,9,15,18,21,25,28,31,34,41-undecazapentacyclo[24.15.9.2^43,46.1^35,41.0^9,13]tripentaconta-37,43(52),44,46(51)-tetraene-16,1′-cyclobutane]-2,5,8,14,17,20,24,27,30,33,53-undecone] |  | 0.081 nM | B (a compound having 3 or more and less than 10 is denoted as B) | A (a compound having 10 or more and less than 20 is denoted as A) | ratio of the KD value with respect to GDP-bound HRAS wild-type protein to the KD value with respect to KRAS ([1]; SPR, KD(HRAS)/KD(KRAS)): B (a compound having 3 or more and less than 10 is denoted as B); IC50 ([2]; read-out: NCI-H441 cell proliferation inhibitory activity, 50% proliferation inhibitory concentration (IC50 value), NCI-H441, four days, CellTiter-Glo): 2.2 nM; ratio of the KD value with respect to GDP-bound NRAS wild-type protein to the KD value with respect to KRAS ([3]; SPR, KD(NRAS)/KD(KRAS)): A (a compound having 10 or more and less than 20 is denoted as A); Kd ([4]; SPR, Single Cycle Kinetics, 1:1 binding model, read-out: KD value with respect to GDP-bound KRAS wild-type protein): 0.081 nM
4 | CCC[C@H]1C(=O)N[C@@H](CC(C)C)C(=O)N2C[C@@H](OC)C[C@H]2C(=O)N(C)[C@H]2C/C=C\CCN(C2=O)[C@@H](Cc2ccc(C)cc2)C(=O)N(C)CC(=O)N[C@@H](CCc2ccc(C(F)(F)F)c(Cl)c2)C(=O)N2C[C@H](OCC)C[C@H]2C(=O)NC2(CC(C)(C)C2)C(=O)N(C)[C@@H](C2CCCC2)C(=O)N(C)[C@H](C(=O)N(C)C)CC(=O)N1C [PP2555] | 212 nM |  |  |  | HRAS/KRAS (ratio of KD value with respect to GDP-bound HRAS wild-type protein to KD value with respect to KRAS) ([1]; SPR KD ratio HRAS/KRAS, class symbols): B (a compound having 3 or more and less than 10 is denoted as B); NRAS/KRAS (ratio of KD value with respect to GDP-bound NRAS wild-type protein to KD value with respect to KRAS) ([3]; SPR KD ratio NRAS/KRAS, class symbols): A (a compound having 10 or more and less than 20 is denoted as A); Kd ([4]; SPR Single Cycle Kinetics, GDP-bound KRAS wild-type protein, 1:1 binding model, read-out: KRAS KD): 4.1 nM

More lines, in order of falling IC50 [2], values ahead:

Row | IC50 [2] | Kd [4, 5] | Structure (SMILES) | HRAS/KRAS (ratio of KD value for HRAS to KD value for KRAS) ([1]; SPR) | NRAS/KRAS (ratio of KD value for NRAS to KD value for KRAS) ([3]; SPR) | further results
5 | 22.2 nM |  | CCC[C@H]1C(=O)N[C@@H]([C@@H](C)CC)C(=O)N(C)CC(=O)N(C)[C@H]2C/C=C\CCN(C2=O)[C@@H](Cc2ccc(C(F)(F)F)cc2)C(=O)N(C)CC(=O)N[C@@H](CCc2cc(F)c(C(F)(F)F)c(F)c2)C(=O)N2C[C@H](OCC)C[C@H]2C(=O)NC2(CCC2)C(=O)N(C)[C@@H](C2CCCC2)C(=O)N(C)[C@H](C(=O)N2CCOCC2)CC(=O)N1C [PP1288] |  |  | HRAS/KRAS (ratio of KD value for HRAS to KD value for KRAS) ([1]; SPR, KD ratio class): A (a compound having 10 or more and less than 20 is denoted as A); NRAS/KRAS (ratio of KD value for NRAS to KD value for KRAS) ([3]; SPR, KD ratio class): AA (a compound having 20 or more is denoted as AA); Kd [4, 6]: 0.18 nM
6 | 19.6 nM | 0.035 nM | CC[C@H](C)[C@@H]1NC(=O)[C@H](CC)N(C)C(=O)C[C@@H](C(=O)N(C)C)N(C)C(=O)[C@H](C2CCCC2)N(C)C(=O)C2(CCC2)NC(=O)[C@@H]2C[C@@H](OC)CN2C(=O)[C@H](CCc2cc(F)c(C(F)(F)F)c(F)c2)NC(=O)CN(C)C(=O)[C@H](Cc2ccc(C(F)(F)F)cc2)N2CC/C=C\C[C@@H](C2=O)N(C)C(=O)CN(C)C1=O [PP1130, (2S,8S,12R,14S,20S,23S,27S,30S,36S,38Z)-20-cyclopentyl-8-[2-[3,5-difluoro-4-(trifluoromethyl)phenyl]ethyl]-27-ethyl-12-methoxy-N,N,4,19,22,26,32,35-octamethyl-30-[(1S)-1-methylpropyl]-3,6,9,15,18,21,25,28,31,34,42-undecaoxo-2-[[4-(trifluoromethyl)phenyl]methyl]spiro[1,4,7,10,16,19,22,26,29,32,35-undecazatricyclo[34.5.1.0^10,14]dotetracont-38-ene-17,1′-cyclobutane]-23-carboxamide] | B (a compound having 3 or more and less than 10 is denoted as B) | A (a compound having 10 or more and less than 20 is denoted as A) | 
7 | 10.4 nM | 0.06 nM | CCO[C@@H]1C[C@H]2C(=O)NC3(CCC3)C(=O)N(C)[C@@H](C3CCCC3)C(=O)N(C)[C@H](C(=O)N(C)C)CC(=O)N(C)[C@@H](CC3CCCC3)C(=O)N[C@@H]([C@@H](C)CC)C(=O)N(C)CC(=O)N(C)[C@H]3C/C=C\CCN(C3=O)[C@@H](Cc3ccc(C(F)(F)F)cc3)C(=O)N(C)CC(=O)N[C@@H](CCc3cc(F)c(C(F)(F)F)c(F)c3)C(=O)N2C1 [PP1112, (2S,8S,12R,14S,20S,23S,27S,30S,36S,38Z)-20-cyclopentyl-27-(cyclopentylmethyl)-8-[2-[3,5-difluoro-4-(trifluoromethyl)phenyl]ethyl]-12-ethoxy-N,N,4,19,22,26,32,35-octamethyl-30-[(1S)-1-methylpropyl]-3,6,9,15,18,21,25,28,31,34,42-undecaoxo-2-[[4-(trifluoromethyl)phenyl]methyl]spiro[1,4,7,10,16,19,22,26,29,32,35-undecazatricyclo[34.5.1.0^10,14]dotetracont-38-ene-17,1′-cyclobutane]-23-carboxamide] | B (a compound having 3 or more and less than 10 is denoted as B) | A (a compound having 10 or more and less than 20 is denoted as A) | 
8 | 9.8 nM | 0.33 nM | CCO[C@H](C)[C@@H]1NC(=O)[C@H](CC(C)C)N(C)C(=O)C[C@@H](C(=O)N(C)CC)N(C)C(=O)[C@H](C2CCCC2)N(C)C(=O)C2(CC(C)(C)C2)NC(=O)[C@@H]2C[C@H](C)CN2C(=O)[C@H](CCc2cc(F)c(C(F)(F)F)c(F)c2)NC(=O)CN(C)C(=O)[C@H](Cc2ccc(C)cc2)N2CC/C=C\C[C@@H](C2=O)N(C)C(=O)CN(C)C1=O [PP2414] | A (a compound having 10 or more and less than 20 is denoted as A) | A (a compound having 10 or more and less than 20 is denoted as A) | 
